One test concerns the target T1, human TLR8 (Homo sapiens, UniProt Q9NR97).
T1 construct: host or cells: HEK-Blue cells
T1 sequence (Q9NR97 27-1041): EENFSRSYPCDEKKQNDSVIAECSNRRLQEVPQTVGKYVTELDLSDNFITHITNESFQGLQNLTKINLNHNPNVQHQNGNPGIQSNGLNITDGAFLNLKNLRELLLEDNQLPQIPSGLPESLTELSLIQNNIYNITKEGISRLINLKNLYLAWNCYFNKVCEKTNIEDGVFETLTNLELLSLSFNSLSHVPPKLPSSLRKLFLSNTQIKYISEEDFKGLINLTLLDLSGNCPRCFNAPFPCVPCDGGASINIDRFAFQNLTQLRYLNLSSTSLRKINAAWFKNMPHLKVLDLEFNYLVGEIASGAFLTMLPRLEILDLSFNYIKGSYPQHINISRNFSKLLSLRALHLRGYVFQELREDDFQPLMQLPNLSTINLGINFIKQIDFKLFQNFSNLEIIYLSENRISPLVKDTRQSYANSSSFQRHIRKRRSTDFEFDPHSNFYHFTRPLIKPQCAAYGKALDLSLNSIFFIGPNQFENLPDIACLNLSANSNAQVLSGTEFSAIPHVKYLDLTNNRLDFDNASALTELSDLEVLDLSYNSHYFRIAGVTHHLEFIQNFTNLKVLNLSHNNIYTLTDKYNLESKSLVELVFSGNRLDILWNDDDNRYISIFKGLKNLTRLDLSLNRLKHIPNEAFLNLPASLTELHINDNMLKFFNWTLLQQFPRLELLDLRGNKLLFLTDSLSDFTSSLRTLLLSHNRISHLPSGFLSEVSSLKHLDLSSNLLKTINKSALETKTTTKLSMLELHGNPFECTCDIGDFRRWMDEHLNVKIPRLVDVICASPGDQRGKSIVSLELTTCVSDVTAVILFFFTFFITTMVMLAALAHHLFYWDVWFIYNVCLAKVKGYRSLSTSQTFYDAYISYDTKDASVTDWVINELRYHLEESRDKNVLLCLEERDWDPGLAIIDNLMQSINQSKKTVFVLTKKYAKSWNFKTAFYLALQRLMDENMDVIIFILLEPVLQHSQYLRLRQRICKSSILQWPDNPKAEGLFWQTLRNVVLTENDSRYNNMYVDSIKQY
Briefly: TLR8 inhibition reporter assay (HEK-Blue SEAP). The class given is cell-based. The conditions noted are these: HEK-Blue cells overexpressing human TLR8, R848 15.9 μM, 22 hour incubation. The method in brief: (§1)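 HEK-Blue cells overexpressing human TLR7, TLR8 or TLR9 carry a SEAP reporter driven by NF-κB/AP-1 sites. Compounds (0.05 nM–50 μM) were preincubated 30 min at room temperature, then cells were stimulated with gardiquimod 7.5 μM (TLR7), R848 15.9 μM (TLR8) or ODN2006 5 nM (TLR9) for 22 h at 37 °C.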
For orientation: A reporter such as luciferase makes a cellular process visible.

For a further test, the target named is T2, human TLR9 (Homo sapiens, UniProt Q9NR96).
T2 construct: host or cells: HEK-Blue cells
T2 sequence (Q9NR96 26-1032): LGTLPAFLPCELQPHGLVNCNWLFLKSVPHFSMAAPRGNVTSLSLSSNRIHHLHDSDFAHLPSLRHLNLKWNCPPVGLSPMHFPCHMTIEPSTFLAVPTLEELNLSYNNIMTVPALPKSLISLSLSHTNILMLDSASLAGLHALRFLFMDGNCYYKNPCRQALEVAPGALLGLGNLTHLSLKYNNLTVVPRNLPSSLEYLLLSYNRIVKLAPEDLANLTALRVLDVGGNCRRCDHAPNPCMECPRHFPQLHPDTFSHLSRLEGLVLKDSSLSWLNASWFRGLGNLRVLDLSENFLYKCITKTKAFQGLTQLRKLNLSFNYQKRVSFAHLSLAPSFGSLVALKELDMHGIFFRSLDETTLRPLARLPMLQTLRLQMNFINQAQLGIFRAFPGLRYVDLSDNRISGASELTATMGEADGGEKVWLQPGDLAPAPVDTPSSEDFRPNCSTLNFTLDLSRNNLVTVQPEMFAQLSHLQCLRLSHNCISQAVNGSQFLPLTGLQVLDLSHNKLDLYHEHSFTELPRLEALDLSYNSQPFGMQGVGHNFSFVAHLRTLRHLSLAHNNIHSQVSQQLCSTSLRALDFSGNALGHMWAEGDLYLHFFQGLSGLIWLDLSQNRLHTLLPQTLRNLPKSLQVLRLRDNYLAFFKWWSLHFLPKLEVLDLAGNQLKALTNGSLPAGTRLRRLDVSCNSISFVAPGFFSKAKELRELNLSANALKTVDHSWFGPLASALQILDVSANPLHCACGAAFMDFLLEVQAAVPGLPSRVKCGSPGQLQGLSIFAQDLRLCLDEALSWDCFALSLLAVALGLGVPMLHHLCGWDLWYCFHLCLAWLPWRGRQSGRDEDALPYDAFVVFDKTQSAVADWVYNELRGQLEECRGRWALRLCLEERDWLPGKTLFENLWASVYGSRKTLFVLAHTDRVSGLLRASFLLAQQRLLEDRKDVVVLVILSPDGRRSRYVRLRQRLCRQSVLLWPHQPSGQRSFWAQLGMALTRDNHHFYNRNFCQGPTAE
Briefly: TLR9 inhibition reporter assay (HEK-Blue SEAP). The conditions noted are these: HEK-Blue cells overexpressing human TLR9, ODN2006 5 nM, 22 hour incubation. It counts as cell-based. The method in brief:
as §1

A value given as a limit tells only on which side of the number the result lay.

By IC50 is commonly meant the concentration needed to halve the response being measured. `Cc1cc2c(cc1-c1cc(C)c3ncnn3c1)[nH]c(=O)n2[C@@H]1CCCN(CC2CCOC2)C1` (stereo partly drawn) [Example 43, 6-methyl-5-(8-methyl-[1,2,4]triazolo[1,5-a]pyridin-6-yl)-1-((3R)-1-((tetrahydrofuran-3-yl)methyl)piperidin-3-yl)-1,3-dihydro-2H-benzo[d]imidazol-2-one]: the IC50 on human TLR8 turned out to be 57.7 nM; against human TLR9 it was 16.5 µM.

For `COc1cc(-c2cc3[nH]c(=O)n([C@@H]4CCCN(C5COC5)C4)c3cc2C)cn2ncnc12` [Example 72, (R)-5-(8-methoxy-[1,2,4]triazolo[1,5-a]pyridin-6-yl)-6-methyl-1-(1-(oxetan-3-yl)piperidin-3-yl)-1,3-dihydro-2H-benzo[d]imidazol-2-one], the IC50 is 249 nM at human TLR8 and 45.8 µM at human TLR9.

With `Cc1cc(-c2ccc3c(c2)[nH]c(=O)n3C2CCN(CC(=O)N(C)C)CC2)cn2ncnc12` [Example 90, N,N-dimethyl-2-(4-(5-(8-methyl-[1,2,4]triazolo[1,5-a]pyridin-6-yl)-2-oxo-2,3-dihydro-1H-benzo[d]imidazol-1-yl)piperidin-1-yl)acetamide], the IC50 against human TLR8 is over 3130 nM; against human TLR9 it was 14.6 µM.

For `CCCN[C@H]1CC[C@@H](n2c(=O)[nH]c3cc(-c4cc(OC)c5ncnn5c4)c(C)cc32)CC1` [Example 64, 5-(8-methoxy-[1,2,4]triazolo[1,5-a]pyridin-6-yl)-6-methyl-1-((1s,4s)-4-(propylamino)cyclohexyl)-1,3-dihydro-2H-benzo[d]imidazol-2-one], the IC50 against human TLR8 stood at 1.76 nM; against human TLR9, 5.49 µM.

For `COc1cc(-c2cc3[nH]c(=O)n([C@H]4CC[C@@H](NCC(C)C)CC4)c3cc2C)cn2ncnc12` [Example 61, 1-((1s,4s)-4-(isobutylamino)cyclohexyl)-5-(8-methoxy-[1,2,4]triazolo[1,5-a]pyridin-6-yl)-6-methyl-1,3-dihydro-2H-benzo[d]imidazol-2-one], the IC50 on human TLR8 was 2.35 nM; against human TLR9, 5.51 µM.

As to `CCC(CC)CN1CCC[C@@H](n2c(=O)[nH]c3cc(-c4cc(C)c5ncnn5c4)c(C)cc32)C1` [Example 45, (R)-1-(1-(2-ethylbutyl)piperidin-3-yl)-6-methyl-5-(8-methyl-[1,2,4]triazolo[1,5-a]pyridin-6-yl)-1,3-dihydro-2H-benzo[d]imidazol-2-one], the IC50 against human TLR8 amounted to 48.1 nM; at human TLR9 it was 3.03 µM.

Turning to `COc1cc(-c2cc3[nH]c(=O)n([C@@H]4CCCN(CC5CC5)C4)c3cc2C)cn2ncnc12` [Example 55, (R)-1-(1-(cyclopropylmethyl)piperidin-3-yl)-5-(8-methoxy-[1,2,4]triazolo[1,5-a]pyridin-6-yl)-6-methyl-1,3-dihydro-2H-benzo[d]imidazol-2-one], the IC50 stood at 19.5 nM on human TLR8 and 5.55 µM at human TLR9.

In the case of `COc1cc(-c2cc3[nH]c(=O)n([C@H]4CC[C@@H](NC5CCOCC5)CC4)c3cc2C)cn2ncnc12` [Example 49, 5-(8-methoxy-[1,2,4]triazolo[1,5-a]pyridin-6-yl)-6-methyl-1-((1s,4s)-4-((tetrahydro-2H-pyran-4-yl)amino)cyclohexyl)-1,3-dihydro-2H-benzo[d]imidazol-2-one], the IC50 on human TLR8 is 3.26 nM; against human TLR9 it was 7.43 µM.

Take `COc1cc(-c2cc3[nH]c(=O)n(C4CCN(C)CC4)c3cc2C)cn2ncnc12` [Example 1, 5-(8-methoxy-[1,2,4]triazolo[1,5-a]pyridin-6-yl)-6-methyl-1-(1-methylpiperidin-4-yl)-1,3-dihydro-2H-benzo[d]imidazol-2-one]: the IC50 at human TLR8 stood at 54.1 nM; against human TLR9 it was 0.278 µM.

`Cc1cc2c(cc1-c1cc(C)c3ncnn3c1)[nH]c(=O)n2[C@@H]1CCCN(CC2CCCC2)C1` [Example 47, (R)-1-(1-(cyclopentylmethyl)piperidin-3-yl)-6-methyl-5-(8-methyl-[1,2,4]triazolo[1,5-a]pyridin-6-yl)-1,3-dihydro-2H-benzo[d]imidazol-2-one]: the results for the IC50 against human TLR8 and on human TLR9 were 32.8 nM and 3.62 µM, respectively.

For `Cc1cc2c(cc1-c1cc(C)c3ncnn3c1)[nH]c(=O)n2[C@@H]1CCCN(CCC(C)(C)C)C1` [Example 44, (R)-1-(1-(3,3-dimethylbutyl)piperidin-3-yl)-6-methyl-5-(8-methyl-[1,2,4]triazolo[1,5-a]pyridin-6-yl)-1,3-dihydro-2H-benzo[d]imidazol-2-one], the IC50 at human TLR8 is 49 nM; at human TLR9, 4.72 µM.

As for `COc1cc(-c2cc3[nH]c(=O)n([C@H]4CC[C@@H](N(C)C)CC4)c3cc2C)cn2ncnc12` [Example 48, 1-((1s,4s)-4-(dimethylamino)cyclohexyl)-5-(8-methoxy-[1,2,4]triazolo[1,5-a]pyridin-6-yl)-6-methyl-1,3-dihydro-2H-benzo[d]imidazol-2-one], the IC50 against human TLR8 was found to be 5.33 nM; against human TLR9, 3.77 µM.

Take `COc1cc(-c2cc3[nH]c(=O)n([C@H]4CC[C@@H](N(C)C(C)C)CC4)c3cc2C)cn2ncnc12` [Example 84, 1-((1s,4s)-4-(isopropyl(methyl)amino)cyclohexyl)-5-(8-methoxy-[1,2,4]triazolo[1,5-a]pyridin-6-yl)-6-methyl-1,3-dihydro-2H-benzo[d]imidazol-2-one]: the IC50 against human TLR8 came out at 9.69 nM; on human TLR9, 4.78 µM.

Consider `COc1cc(-c2cc3[nH]c(=O)n([C@@H]4CCCN(C)C4)c3cc2C)cn2ncnc12` [Example 51, (R)-5-(8-methoxy-[1,2,4]triazolo[1,5-a]pyridin-6-yl)-6-methyl-1-(1-methylpiperidin-3-yl)-1,3-dihydro-2H-benzo[d]imidazol-2-one], for which the IC50 on human TLR8 is 21 nM; against human TLR9, 8.39 µM.

For the compound `COc1cc(-c2cc3[nH]c(=O)n([C@H]4CC[C@@H](NC5CCCCC5)CC4)c3cc2C)cn2ncnc12` [Example 62, 1-((1s,4s)-4-(cyclohexylamino)cyclohexyl)-5-(8-methoxy-[1,2,4]triazolo[1,5-a]pyridin-6-yl)-6-methyl-1,3-dihydro-2H-benzo[d]imidazol-2-one], the figures for the IC50 at human TLR8 and at human TLR9 were 1.85 nM and 2.35 µM, respectively.

Consider `Cc1cc2c(cc1-c1cc(C)c3ncnn3c1)[nH]c(=O)n2[C@H]1CCCN(CC(N)=O)C1` [Example 92, (S)-2-(3-(6-methyl-5-(8-methyl-[1,2,4]triazolo[1,5-a]pyridin-6-yl)-2-oxo-2,3-dihydro-1H-benzo[d]imidazol-1-yl)piperidin-1-yl)acetamide], for which the IC50 at human TLR8 was found to be 177 nM; against human TLR9, 21.1 µM.

The values are drawn from patent US12187723B2 (BRISTOL-MYERS SQUIBB COMPANY, priority 2019, dated 2025).
